# Columns and labels:
# [1] = system: HCT8 enterocyte and HT29-MTX goblet cell lines; test: Oris Cell Migration assay (epithelial cell wound healing); format: cell-based, human; settings: 48 hours; SG-11 (SEQ ID NO:5 or SEQ ID NO:9) 1 μg/ml, EGF 30 ng/ml, staurosporine 100 nM; FIG. 2
# Description: The 96 well Oris Cell Migration assay containing plugs preventing cell attachment in the center of each well was used according to the manufacturer's instructions (Platypus Technologies, Madison, Wis.). The migration assay plates were warmed to room temperature prior to use and plugs were removed from 100% confluence wells prior to cell addition. The HCT8 enterocyte and HT29-MTX goblet cell lines were used at a 9:1 ratio with a total of 5×10^4 total cells added per well (4.5×10^4 HCT8 cells and 0.5×10^4 HT29-MTX cells). Cells were incubated at 37° C.+5% CO2 for 24 hours. Plugs were then removed from all control and sample wells. Control wells included cells treated with the diluent vehicle as the blank, 30 ng/ml epidermal growth factor (EGF) as the positive control, and 100 nM staurosporine as the negative control, all diluted in cRPMI. Sample wells contained SG-11 protein (SEQ ID NO:9) at a concentration of 1 μg/ml diluted in cRPMI. 100% and 0% wells were cultured in cRPMI. […] The green fluorescent viability dye […] was added to all wells at a concentration of 0.5 μg/ml in PBS containing 0.9 mM CaCl2 and 0.5 mM MgCl2, incubated for 30 min at 37° C.+5% CO2, the dye was removed and cells were washed in PBS containing 0.9 mM CaCl2 and 0.5 mM MgCl2 and fluorescence was measured. […] Samples were normalized between 100% and 0% samples and values expressed as a percent growth.
# [2] = system: C57BL/6 mice given 2.5% DSS in drinking water; test: Concurrent (prophylactic) DSS model of inflammatory bowel disease (Example 4, Example 13A); format: in vivo, mouse; settings: 50 nmoles/kg i.p. b.i.d.
# [3] = system: C57BL/6 mice given 2.5% DSS in drinking water; test: Therapeutic DSS model of inflammatory bowel disease, treatment after 7 days DSS (Example 5, Example 13B); format: in vivo, mouse
# Protocol: In this example, experiments were performed to study the effects of SG-11 in the DSS mouse model when the SG-11 protein is administered to the mice after DSS treatment for 7 days. This differs from the treatment regimen of Example 4 above in which mice were administered SG-11 protein shortly before treatment with DSS.
# Eight-week-old male C57BL/6 mice were housed 5 animals per cage and given food and water ad libitum for seven days. Following a 7-day acclimation period, the mice were provided with drinking water containing 2.5% DSS for 7 days. Fresh 2.5% DSS water was prepared every 2 days during the 7 day DSS administration. For this therapeutic DSS study, SG-11 used to treat the animals was fused at its N-terminus to a FLAG Tag (DYKDDDDK; SEQ ID NO:32).
# On day 7 normal drinking water was restored and i.p. treatments of 50 nmole/kg of SG-11 (1.3 mg/kg) or Gly2-GLP2 (0.2 mg/kg) were initiated. Treatments were administered twice a day (b.i.d.), with a morning and evening dose (every 8 and 16 hours) for six days.
# Body weight was measured daily during the morning treatment. The colon tissue was then harvested and length was measured in centimeters and the tissue was weighed. Fecal material was flushed from the colon and residual PBS removed by gently running the colon tissue through a pair of forceps. The colon tissue was then weighed and colon weight to length ratio in mg/mm was determined. Following weight measurements proximal and distal colon tissue was banked for RNA and protein analysis and the remaining tissues was fixed in 10% neutral buffered formalin for histopathology. Statistical analysis was performed by a one-way ANOVA compared to DSS+vehicle for serum 4KDa-FITC translocation, serum LBP concentrations, colon length, and colon weight to length ratio, while a two-way ANOVA was performed for analysis of body weight. In all analysis, a Fisher's LSD test for multiple comparisons was used. Graphs represent data pooled from two experiments, and are plotted as mean±SEM.
# Histopathology analysis was performed on proximal and distal colon tissues from the therapeutic DSS model described above. Proximal (FIG. 13A) and distal (FIG. 13B) colon scores (range 0-4) are presented and as well as the total score for the colon which represents the sum of proximal and distal colon scores (Range 0-8) (FIG. 13C). LMA=Loss of mucosal architecture, Edema=Edema, INF=Inflammation, TMI=Transmural inflammation, MH=Mucosal hyperplasia, DYS=Dysplasia. Graphs represent data pooled from two independent experiments, and are plotted as mean±SEM. Statistical analysis was performed by a one-way ANOVA compared to DSS+vehicle followed by a Fisher's LSD test for multiple comparisons.
# In the second experiment (Example 13B), mice were provided with drinking water containing 2.5% DSS for 7 days. On day 7 normal drinking water was restored and i.p. treatments of 50 nmole/kg of SG-11 (SEQ ID NO:7) (1.3 mg/kg), SG-11V5 (SEQ ID NO:19) (1.3 mg/kg), or Gly2-GLP2 (0.2 mg/kg) were initiated. […]
# At the end of each DSS model study, mice were fasted for 4 hours and then orally gavaged with 600 mg/kg 4KDa dextran labeled with fluorescein isothiocyanate (FITC) [4KDa-FITC]. One hour after the 4KDa-FITC gavage mice were euthanized, blood was collected and FITC signal was measured in serum. […]
# Upon completion of the DSS models above, LBP levels were measured as an inflammation centric readout of barrier function following the protocol detailed in Example 5. […]
# [4] = mouse, in vivo, ip
# [5] = Example 5, colon tissue, vs DSS+vehicle, FIG. 13
compound,measurement,setting,value
CN[C@@H]1C[C@H]2O[C@@](C)([C@@H]1OC)n1c3ccccc3c3c4c(c5c6ccccc6n2c5c31)C(=O)NC4 [staurosporine],"Percent growth (epithelial cell wound healing, proliferation)",[1],suppressing cell proliferation
"Gly2-GLP2: stable analog of glucagon-like peptide 2 (GLP2), positive control (HGDGSFSDEMNTILDNLAARDFINWLIQTKITD; Glucagon-like peptide 2; UniProt P01275 146-178, looked up, variant A2G) [reference compound]",Colon length,[2]; FIG. 8A,significant improvement in colon length
same,Colon weight to length ratio,[2]; FIG. 8B,significant improvement in colon weight to length ratios
same,LBP in serum,"[3]; Example 5, 50 nmole/kg i.p. b.i.d. for six days after 7 days DSS, FIG. 10",no reduction in LBP
same,Histopathology: inflammation and transmural inflammation scores,[3]; [5],no change
same,Histopathology: loss of mucosal architecture score,[3]; [5],"modest, but significant, reduction"
same,Colon weight to length ratio,"[3]; Example 13B, 50 nmole/kg, vs DSS+vehicle, p<0.01, FIG. 23B",did not
same,4KDa-FITC intestinal permeability readout and serum LBP,"[3]; treatment after 7 days DSS, 50 nmole/kg i.p. b.i.d. for six days, FLAG-tagged SG-11",no significant effects
"epidermal growth factor [EGF, positive control in the wound healing assay]","Percent growth (epithelial cell wound healing, proliferation)",[1],increasing proliferation
fluorescently labeled bovine serum albumin: tracer protein used in preliminary tracking studies after i.p. injection,Time at which protein reached the colon after i.p. delivery,[4],6 h
